The results in this text go back to ChEMBL document CHEMBL1136222, “1-Benzyloxy-4,5-dihydro-1H-imidazol-2-yl-amines, a novel class of NR1/2B subtype selective NMDA receptor antagonists” (Bioorg Med Chem Lett, 2003).

One data set has as its target Glutamate NMDA receptor. Kind of data set: Binding affinity for N-methyl-D-aspartate glutamate receptor was measured through displacement of [3H]25-6981. It counts as protein-complex assay.
Data set [1] in a line: pKa value was determined. It counts as physicochemical.
The species entered for another data set is Rattus norvegicus. Nature of the data set: Effect on K+ channels in rat cortical neurones at 10 uM. It counts as functional.
For data set [2], the target named is T1, Adrenergic receptor alpha-2 (Rattus norvegicus, UniProt P22086+P19328+P22909).
T1 sequence (P22086 whole entry): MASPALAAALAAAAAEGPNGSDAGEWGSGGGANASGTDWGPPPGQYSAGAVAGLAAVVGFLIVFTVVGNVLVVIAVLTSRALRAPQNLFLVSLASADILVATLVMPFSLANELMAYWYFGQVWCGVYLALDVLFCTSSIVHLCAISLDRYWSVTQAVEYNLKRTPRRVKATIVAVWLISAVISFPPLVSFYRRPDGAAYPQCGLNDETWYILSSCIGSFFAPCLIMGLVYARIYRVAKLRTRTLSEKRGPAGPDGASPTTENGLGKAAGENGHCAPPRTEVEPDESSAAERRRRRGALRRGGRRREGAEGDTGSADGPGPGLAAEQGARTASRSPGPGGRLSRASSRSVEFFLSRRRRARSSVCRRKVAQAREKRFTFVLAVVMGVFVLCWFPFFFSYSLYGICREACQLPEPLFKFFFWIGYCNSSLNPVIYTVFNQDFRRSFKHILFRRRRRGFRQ
T1 sequence (P19328 whole entry): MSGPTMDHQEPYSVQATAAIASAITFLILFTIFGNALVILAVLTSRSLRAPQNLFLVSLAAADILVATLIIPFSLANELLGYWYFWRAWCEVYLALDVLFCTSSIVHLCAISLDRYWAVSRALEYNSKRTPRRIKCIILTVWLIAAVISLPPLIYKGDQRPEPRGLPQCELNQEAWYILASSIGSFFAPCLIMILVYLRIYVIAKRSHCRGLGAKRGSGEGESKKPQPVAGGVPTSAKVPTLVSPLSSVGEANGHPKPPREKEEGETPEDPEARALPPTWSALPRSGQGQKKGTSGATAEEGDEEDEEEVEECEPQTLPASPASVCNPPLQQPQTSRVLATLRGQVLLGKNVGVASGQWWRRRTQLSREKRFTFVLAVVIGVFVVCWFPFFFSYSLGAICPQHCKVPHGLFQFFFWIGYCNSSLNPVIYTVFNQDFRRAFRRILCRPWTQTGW
T1 sequence (P22909 whole entry): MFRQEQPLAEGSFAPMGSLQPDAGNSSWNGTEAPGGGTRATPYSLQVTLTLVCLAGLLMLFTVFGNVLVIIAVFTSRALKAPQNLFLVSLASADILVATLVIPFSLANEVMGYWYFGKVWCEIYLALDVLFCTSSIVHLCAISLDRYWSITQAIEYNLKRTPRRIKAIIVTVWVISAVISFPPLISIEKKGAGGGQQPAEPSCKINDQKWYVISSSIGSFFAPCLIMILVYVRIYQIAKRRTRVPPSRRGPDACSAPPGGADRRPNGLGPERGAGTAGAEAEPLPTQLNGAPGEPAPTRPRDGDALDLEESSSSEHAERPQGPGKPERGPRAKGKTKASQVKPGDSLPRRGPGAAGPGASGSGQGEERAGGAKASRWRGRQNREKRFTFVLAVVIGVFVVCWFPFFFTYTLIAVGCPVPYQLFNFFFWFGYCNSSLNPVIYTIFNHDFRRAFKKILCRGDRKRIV
Kind of data set: Binding affinity towards Alpha-2 adrenergic receptor was measured through displacement of [3H]-RX-821002. It counts as protein assay.

The target of data set [3] is T2, Adrenergic receptor alpha-1 (Rattus norvegicus, UniProt P15823+P23944+P43140).
T2 sequence (P15823 whole entry): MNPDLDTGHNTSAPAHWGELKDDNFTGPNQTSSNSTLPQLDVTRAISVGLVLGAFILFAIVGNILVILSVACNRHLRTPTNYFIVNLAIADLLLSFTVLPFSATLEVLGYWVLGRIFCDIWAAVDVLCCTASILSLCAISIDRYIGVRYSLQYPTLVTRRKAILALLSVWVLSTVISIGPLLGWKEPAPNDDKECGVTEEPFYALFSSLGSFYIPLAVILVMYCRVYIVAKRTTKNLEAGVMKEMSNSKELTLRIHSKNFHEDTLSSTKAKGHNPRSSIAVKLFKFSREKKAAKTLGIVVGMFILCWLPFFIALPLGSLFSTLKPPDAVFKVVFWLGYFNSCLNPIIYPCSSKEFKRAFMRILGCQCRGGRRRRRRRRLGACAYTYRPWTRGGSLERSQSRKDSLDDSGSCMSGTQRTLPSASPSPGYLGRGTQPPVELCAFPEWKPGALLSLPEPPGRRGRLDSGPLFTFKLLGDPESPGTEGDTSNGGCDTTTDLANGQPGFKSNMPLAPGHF
T2 sequence (P23944 whole entry): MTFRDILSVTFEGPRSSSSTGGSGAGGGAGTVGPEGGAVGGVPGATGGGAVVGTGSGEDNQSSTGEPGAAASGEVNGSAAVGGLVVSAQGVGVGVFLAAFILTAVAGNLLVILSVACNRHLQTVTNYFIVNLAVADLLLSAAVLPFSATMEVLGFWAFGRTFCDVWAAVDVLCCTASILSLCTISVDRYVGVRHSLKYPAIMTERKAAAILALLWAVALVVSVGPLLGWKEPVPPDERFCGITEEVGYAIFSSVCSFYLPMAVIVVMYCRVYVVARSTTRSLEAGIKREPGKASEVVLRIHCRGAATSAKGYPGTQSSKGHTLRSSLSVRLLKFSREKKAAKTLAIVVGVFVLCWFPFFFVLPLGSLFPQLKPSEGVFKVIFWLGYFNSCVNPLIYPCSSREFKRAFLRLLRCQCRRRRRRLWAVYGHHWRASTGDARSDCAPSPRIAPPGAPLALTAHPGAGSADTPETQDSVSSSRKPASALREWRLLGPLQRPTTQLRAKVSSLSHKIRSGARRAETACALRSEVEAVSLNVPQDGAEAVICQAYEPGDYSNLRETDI
T2 sequence (P43140 whole entry): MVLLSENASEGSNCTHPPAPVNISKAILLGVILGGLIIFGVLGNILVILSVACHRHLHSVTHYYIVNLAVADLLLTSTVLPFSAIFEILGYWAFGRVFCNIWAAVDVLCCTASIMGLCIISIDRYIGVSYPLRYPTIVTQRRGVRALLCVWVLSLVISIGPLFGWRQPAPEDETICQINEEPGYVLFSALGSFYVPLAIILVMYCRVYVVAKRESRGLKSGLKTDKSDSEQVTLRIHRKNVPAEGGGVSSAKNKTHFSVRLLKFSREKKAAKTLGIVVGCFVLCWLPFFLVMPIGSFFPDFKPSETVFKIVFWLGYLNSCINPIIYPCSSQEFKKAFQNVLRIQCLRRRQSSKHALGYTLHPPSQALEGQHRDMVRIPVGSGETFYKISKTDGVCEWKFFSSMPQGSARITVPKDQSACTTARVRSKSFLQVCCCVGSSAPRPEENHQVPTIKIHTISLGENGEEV
Nature of the data set: Binding affinity towards Alpha-1 adrenergic receptor was measured through displacement of [3H]prazosin. The data set is classed as protein assay.

`CCCCCNC1=NCCN1OCc1cccc(F)c1` yielded a Ki on Glutamate NMDA receptor of 23 nM.
Molecule `CCCCCNC1=NCCN1OCc1ccccc1C` gave a Ki on Glutamate NMDA receptor of 34 nM.
The same measure, in the same setting: to `CCCCCNC1=NCCN1OCc1ccc(F)cc1` belongs 100 nM.
The same measure, in the same setting: to `CCCCCNC1=NCCN1OCc1ccc(C)cc1` belongs 230 nM; to `CCCCNC1=NCCN1OCc1ccccc1`, 60 nM.
Still for that read-out and setting: for `Oc1ccc(CCNC2=NCCN2OCc2ccccc2)cc1` the value was 380 nM.
With `CCCCCNC1=NCCN1CCc1ccccc1`, the pKa in data set [1] was more than 12. On Glutamate NMDA receptor, this molecule yielded a Ki of 230 nM.
`CCCCCNC1=NCCN1OCc1ccc(OC)cc1`: on Glutamate NMDA receptor, affinity was put at a Ki of 110 nM.
In the data set filed under Rattus norvegicus, `CCCCCNC1=NCCN1OCc1ccccc1` returned an Effect of 48%. Also, the pKa in data set [1] was 10.1. Besides, the inhibitory constant (Ki) in data set [2] worked out at 30000 nM; in data set [3], 5500 nM.
Take `CCCCCNC1=NCCN1OCc1ccc(Cl)cc1`: on Glutamate NMDA receptor, the Ki amounted to 170 nM.
Take `CCCCCNC1=NCCN1OCCCc1ccccc1`: the pKa in data set [1] stood at 10. Further, at Glutamate NMDA receptor, affinity was put at a Ki of 980 nM.
In the data set listed under Rattus norvegicus, `CCCCCNC1=NCCN1OCCc1ccccc1` came in with an Effect of 63%. This molecule also displayed a pKa in data set [1] of 9.9. Further, the values for the Ki in data set [2] and in data set [3] were 10000 nM and 4900 nM, respectively.
In turn, `CCCCC/N=C1/CCCN1CCc1ccccc1` showed a pKa in data set [1] of more than 11.
On to `CCCCCNC1=NCCN1OCc1ccc(-c2ccccc2)cc1`, for which affinity on Glutamate NMDA receptor was put at a Ki of 1100 nM.
On Glutamate NMDA receptor, `CCCCCNC1=NCCN1OCc1ccc([N+](=O)[O-])cc1` displayed a Ki of 1100 nM.
Molecule `OCCNC1=NCCN1OCc1ccccc1` gave a Ki at Glutamate NMDA receptor of 2250 nM.
At Glutamate NMDA receptor, `CCCCCNC1=NCCN1OCc1cccc(C)c1` gave a Ki of 38 nM.
Same read-out and setting: for `C=CCNC1=NCCN1OCc1ccccc1` the value was 1100 nM.
The same measure, in the same setting: for `c1ccc(COCCNC2=NCCN2OCc2ccccc2)cc1` the value was 1500 nM; for `c1ccc(CON2CCN=C2NC2CC2)cc1`, 260 nM.
In data set [1], `CCCCCSC1=NCCN1OCc1ccccc1` yielded a pKa of 8.5. Also, the affinity on Glutamate NMDA receptor corresponds to a Ki of 6000 nM.
On to `c1ccc(CCCNC2=NCCN2OCc2ccccc2)cc1`, for which, on Glutamate NMDA receptor, the affinity corresponds to a Ki of 750 nM.
The same measure, in the same setting: to `c1ccc(CON2CCN=C2NCc2cccnc2)cc1` belongs 380 nM; to `c1ccc(CNC2=NCCN2OCc2ccccc2)cc1`, 130 nM.
Molecule `c1ccc(CCCCNC2=NCCN2OCc2ccccc2)cc1` registered a Ki on Glutamate NMDA receptor of 380 nM.
On to `CCCCCNC1=NCCN1OCc1ccccc1OC`, for which the affinity on Glutamate NMDA receptor corresponds to a Ki of 280 nM.
For `CC(C)NC1=NCCN1OCc1ccccc1`, on Glutamate NMDA receptor, affinity was put at a Ki of 5600 nM.
In the case of `CCCCNC1=NCCCN1OCc1ccccc1`, in data set [1], the pKa is more than 12. Further, the affinity at Glutamate NMDA receptor corresponds to a Ki of 750 nM.
Take `CCCCCNC1=NCCN1OCc1ccccc1F`: the Ki on Glutamate NMDA receptor stood at 15 nM.
The same measure, in the same setting: for `CCCCCCNC1=NCCN1OCc1ccccc1` the value was 75 nM.
Still for that read-out and setting: to `CCCCCNC1=NCCN1OCc1cccs1` belongs 56 nM; to `CCCCCNC1=NCCN1OCc1ccccc1Cl`, 38 nM.
Same read-out and setting: to `c1ccc(CCNC2=NCCN2OCc2ccccc2)cc1` belongs 1100 nM; to `CCCCCNC1=NCCN1OCc1cccc([N+](=O)[O-])c1`, 530 nM.
Turning to `CCCCCNC1=NCCN1OCc1cccc(OC)c1`, at Glutamate NMDA receptor, affinity was put at a Ki of 560 nM.
In data set [1], `CCCCCNc1nc2ccccc2n1CCc1ccccc1` gave a pKa of 7.4.
